Measured values taken from patent publication EP4803080A1, “METHOD FOR TREATING LEUKEMIA” (Shenzhen TargetRx Co., Ltd., priority 2023, dated 2025).
Values joined by “and” are separate entries in the source; they are usually repeats but may differ in a detail not shown here. Equal values may be shown once. Read-outs that look alike come from different tables or passages of the source.

Assays:
[1] = Study of blood-brain ratio after single oral dose; assay type: in vivo; conditions: male SD rats
Method: A total of 15 male SD rats (3 per time point) were administered a single oral dose of Compound A via oral gavage at 50 mg/kg, with the vehicle being 0.5% sodium carboxymethyl cellulose (CMC-Na). The animals were not fasted. Whole blood, cerebrospinal fluid, and brain tissue were collected at 0.5, 2, 4, 8, and 24 hours post-dose. Whole blood samples (about 0.3 mL) were collected via puncture of the jugular venous sinus and transferred to dipotassium ethylenediaminetetraacetate (K2EDTA) anticoagulant tubes, mixed thoroughly, placed on wet ice, and centrifuged within 30 minutes for 5 minutes (6000 rpm, 4°C) to obtain plasma. Cerebrospinal fluid (about 0.10 mL) was collected via puncture of the cerebellomedullary cistern and placed in collection tubes. Brain tissue samples were rinsed with saline, dried with filter paper, blood vessels were removed, and the weight was weighed and recorded. Brain tissue was homogenized with 9 times its weight of homogenization buffer (30% MeOH, containing 0.2% FA/70% 10 mM PBS). All samples were stored in a freezer at -80°C or lower until LC-MS analysis. PK parameters were calculated using the non-compartmental model in WinNonlin and the compound concentrations in each matrix.

[2] = Phase I clinical trial: pharmacokinetics; assay type: in vivo, humans; conditions: CML patients, oral
Text: • 1) To preliminarily evaluate the pharmacokinetic characteristics of Compound A after multiple oral administrations; • 2) To preliminarily evaluate the antitumor effects of Compound A.
(§1) This study is a single-arm, open-label, dose-escalation and dose-expansion Phase I clinical trial. The trial plans to enroll patients with chronic myeloid leukemia (CML) who have developed resistance or intolerance after prior treatment with BCR-ABL1 tyrosine kinase inhibitor(s) (TKIs).
The dose-escalation phase of this trial consists of about 8 dose groups, with oral administration under fasting conditions. Subjects in all dose groups will receive a single dose on Day 1 (D1), followed by pharmacokinetic (PK) and tolerability observations. If no drug-related adverse events of Grade 3 or higher occur during the single-dose period, the subject will enter the multiple-dose period (i.e., the treatment period) after 3-5 days (for the first dose group, the multiple-dose period begins 5 days after the first dose [i.e., starting on Day 6]; for subsequent dose groups, the interval will be determined based on available tolerability and PK data). […] The dosing frequency for subjects in subsequent dose groups after entering the multiple-dose period will be determined based on available PK and tolerability data. […]

[3] = Phase I clinical trial: safety and tolerability; assay type: in vivo
Text: To explore the safety and tolerability of multiple doses of Compound A in humans, and to determine the maximum tolerated dose (MTD) and the recommended Phase II dose (RP2D).
as §1
The dose-escalation phase of this trial consists of about 8 dose groups, with oral administration under fasting conditions. Subjects in all dose groups will receive a single dose on Day 1 (D1), followed by pharmacokinetic (PK) and tolerability observations. If no drug-related adverse events of Grade 3 or higher occur during the single-dose period, the subject will enter the multiple-dose period (i.e., the treatment period) after 3-5 days (for the first dose group, the multiple-dose period begins 5 days after the first dose [i.e., starting on Day 6]; for subsequent dose groups, the interval will be determined based on available tolerability and PK data). After entering the multiple-dose period, subjects in the first dose group will initially receive twice-daily (BID) dosing (if PK data from the single-dose period are available, the dosing frequency during the multiple-dose period may be adjusted based on the PK data). The dosing frequency for subjects in subsequent dose groups after entering the multiple-dose period will be determined based on available PK and tolerability data. Throughout the trial, dosing frequency for all subjects may be adjusted based on continuously updated safety and PK data.
A continuous reassessment method (CRM) based on the principle of the escalation with overdose control (EWOC) design will be used to recommend the next specific dose for each dose escalation, thereby completing dose escalation and determining the maximum tolerated dose (MTD). If both the investigator and sponsor believe that higher dose groups may offer better efficacy and manageable safety, the EWOC-based CRM method may be used to explore higher doses. All enrolled subjects will receive long-term treatment with the test drug and undergo evaluations for safety, tolerability, and preliminary efficacy.

[4] = system: SUP-B15 cells; experiment: Efficacy study in the SUP-B15 subcutaneous xenograft model; assay type: in vivo; conditions: for TGI (%): after 21 days of administration
Method: SUP-B15 cells, a Philadelphia chromosome-positive acute lymphoblastic leukemia cell line, were cultured in vitro using IMDM medium supplemented with 20% fetal bovine serum. When the cell count reached the required level, the cells were harvested, counted, and inoculated.
Animals: NCG mice, female, aged 6-8 weeks, weighing 18-22 grams. A total of 35 mice (including 15 spare mice) were used. The mice were provided by Jiangsu GemPharmatech Co., Ltd. or other qualified suppliers.
Tumor inoculation: 0.1 mL (10×10^6 cells) SUP-B15 cells and 0.1 mL Matrigel (total volume 0.2 mL) were mixed thoroughly and subcutaneously inoculated into the right back of each mouse.
Animal grouping and dosing: Grouping and dosing began when the average tumor volume reached 150-200 mm^3.
Animal Grouping: Animals were weighed and tumor volumes were measured prior to drug administration. Grouping was performed randomly based on tumor volume.
Observation: Daily monitoring of animal health status and mortality, routine checks include observing tumor growth and the impact of drug treatment on daily behavioral performance such as activity levels, food and water intake, weight changes (measured twice a week or every other day), external signs, or other abnormalities. The number of animal deaths and side effects within each group based on the number of animals in each group were recorded.
Test indicators: The test indicators were to examine whether tumor growth is inhibited, delayed, or cured. Tumor diameter was measured three times a week using a vernier caliper. The formula for calculating tumor volume was: V = 0.5a × b^2, where a and b represent the long and short diameters of the tumor, respectively.
The antitumor efficacy of the compounds was evaluated using TGI (%) or the relative tumor proliferation rate T/C (%). TGI (%) reflects the tumor growth inhibition rate.
Relative Tumor Proliferation Rate T/C (%): The calculation formula is as follows: T/C % = TRTV / CRTV × 100% (TRTV: treatment group RTV; CRTV: negative control group RTV). The relative tumor volume (RTV) is calculated based on tumor measurement results, with the formula RTV = Vt / V0, where V0 is the average tumor volume measured at the time of grouping (i.e., d0), and Vt is the average tumor volume at a specific measurement time. TRTV and CRTV use data from the same day.
At the end of the test, tumor weight will be measured, and the Tweight/Cweight percentage will be calculated, where Tweight and Cweight represent the tumor weights of the treatment group and the vehicle control group, respectively.
Data analysis: T-test is used for comparisons between two groups. One-way ANOVA is used for comparisons among three or more groups. […] All data analyses are performed using SPSS 17.0. A p < 0.05 is considered statistically significant.

[5] = PO 50 mg/kg single dose, 0.5 hr, individual rat, 50 mg/kg
[6] = PO 50 mg/kg single dose, 2 hr, individual rat, 50 mg/kg
[7] = PO 50 mg/kg single dose, 4 hr, individual rat, 50 mg/kg
[8] = PO 50 mg/kg single dose, 8 hr, individual rat, 50 mg/kg
[9] = PO 50 mg/kg single dose, 24 hr, individual rat, 50 mg/kg
[10] = CML subjects, safety data cutoff June 2, 2023

O=C(Nc1ccc(OC(F)(F)Cl)cc1)c1cnc(N2CC[C@@H](F)C2)c(-c2cnccn2)c1 [Compound A, (R)-N-(4-(chlorodifluoromethoxy)phenyl)-6-(3-fluoropyrrolidin-1-yl)-5-(pyrazin-2-yl)nicotinamide]
Brain Concentration (ng/g) Concentration [1, 5]: 302 ng/g and 381 ng/g
Brain/Blood Ratio Individual Value [1, 5]: 0.376 and 0.578
Brain Concentration (ng/g) Concentration [1, 6]: 1360 ng/g and 1070 ng/g
Brain/Blood Ratio Individual Value [1, 6]: 0.410 and 0.502
Brain Concentration (ng/g) Concentration [1, 7]: 1190 ng/g and 1310 ng/g
Brain/Blood Ratio Individual Value [1, 7]: 0.478 and 0.466
Brain Concentration (ng/g) Concentration [1, 8]: 452 ng/g and 1700 ng/g and 994 ng/g
Brain/Blood Ratio Individual Value [1, 8]: 0.447 and 0.462
Brain Concentration (ng/g) Concentration [1, 9]: 40.4 ng/g and 10.2 ng/g
Brain/Blood Ratio Individual Value [1, 9]: 0.488 and 0.990
concentration at 0.5 h ([1]; male, SD, rat, brain, po, 50 mg/kg, PO 50 mg/kg single dose, 0.5 hr, individual rat, read-out: Brain Concentration (ng/g) Concentration): 415 ng/g
concentration at 0.5 h ([1]; male, SD, rat, brain, po, 50 mg/kg, PO 50 mg/kg single dose, 0.5 hr, mean of 3 rats, read-out: Brain Concentration (ng/g) Mean): 366 ng/g
concentration at 2 h ([1]; male, SD, rat, brain, po, 50 mg/kg, PO 50 mg/kg single dose, 2 hr, individual rat): 961 ng/g
concentration at 4 h ([1]; male, SD, rat, brain, po, 50 mg/kg, PO 50 mg/kg single dose, 4 hr, individual rat): 880 ng/g
concentration at 24 h ([1]; male, SD, rat, brain, po, 50 mg/kg, PO 50 mg/kg single dose, 24 hr, mean (one rat NA)): 16.9 ng/g
Kp at 0.5 h ([1]; male, SD, rat, brain/plasma, po, 50 mg/kg, PO 50 mg/kg single dose, 0.5 hr, individual rat): 0.624
Kp at 2 h ([1]; male, SD, rat, brain/plasma, po, 50 mg/kg, PO 50 mg/kg single dose, 2 hr, individual rat): 0.439
Kp at 4 h ([1]; male, SD, rat, brain/plasma, po, 50 mg/kg, PO 50 mg/kg single dose, 4 hr, individual rat): 0.374
Kp at 8 h ([1]; male, SD, rat, brain/plasma, po, 50 mg/kg, PO 50 mg/kg single dose, 8 hr, individual rat): 0.511
Kp ([1]; male, SD, rat, brain/plasma, po, 50 mg/kg, single oral dose 50 mg/kg, 0.5 to 24 hours, read-out: brain-to-plasma concentration ratio): 0.44 to 0.74
Cmax ([1]; rat, brain, single oral dose 50 mg/kg): 1130 ng/g
AUC0-last in the brain ([1]; single oral dose 50 mg/kg): 16346 ng·h/g
exposure versus dose [2]: dose-proportional
half-life ([2]; human, in vivo, read-out: terminal half-life): > 100 h
dose-dependent increase in the frequency of adverse events ([3]; CML subjects, 10 mg BID to 240 mg QD, safety data cutoff June 2, 2023): no observed dose-dependent increase
Grade ≥3 hematological adverse events associated with the test drug [3, 10]: mostly manageable with treatment interruption
non-hematological toxicity compared to ATP-competitive TKIs [3, 10]: significant improvement in non-hematological toxicity
pigmentation or severe arterial occlusive events and venous thromboembolic events [3, 10]: no reported
safety and tolerability profile [3, 10]: favorable safety and tolerability profile
tolerability ([3]; CML-CP and CML-AP patients, extended follow-up, as of June 2, 2024): good tolerability
TGI (%) ([4]; 5 mg/kg p.o. qd): 119.5%
TGI (%) ([4]; 15 mg/kg p.o. qd): 124.7%
TGI (%) ([4]; 45 mg/kg p.o. qd): 125.6%
weight loss ([4]; any treatment group (5, 15, 45 mg/kg p.o. qd × 3 weeks)): No significant weight loss
